Reference: PubChem BioAssay (NCI)
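Dose response: 5 concentrations. Exposure: 48 h. Format: 96-well plates. Endpoint: linear interpolation; highest concentration if not reached. At the GI50, growth is halved. Definition used: TGI = concentration required for complete inhibition of growth.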

Assays:
Test in all cases: inhibition of tumour cell growth, NCI panel, 48 h
786-0 renal = tested on: 786-0 renal
A498 renal = tested on: A498 renal
A549 NSCLC = tested on: A549 NSCLC
ACHN renal = tested on: ACHN renal
BT-549 breast = tested on: BT-549 breast
CAKI-1 renal = tested on: CAKI-1 renal
CCRF-CEM leukemia = tested on: CCRF-CEM leukemia
COLO 205 colon = tested on: COLO 205 colon
DU-145 prostate = tested on: DU-145 prostate
EKVX NSCLC = tested on: EKVX NSCLC
HCC-2998 colon = tested on: HCC-2998 colon
HCT-116 colon = tested on: HCT-116 colon
HCT-15 colon = tested on: HCT-15 colon
HL-60(TB) leukemia = tested on: HL-60(TB) leukemia
HOP-62 NSCLC = tested on: HOP-62 NSCLC
HOP-92 NSCLC = tested on: HOP-92 NSCLC
HS 578T breast = tested on: HS 578T breast
HT29 colon = tested on: HT29 colon
IGROV1 ovarian = tested on: IGROV1 ovarian
K-562 leukemia = tested on: K-562 leukemia
KM12 colon = tested on: KM12 colon
LOX IMVI melanoma = tested on: LOX IMVI melanoma
M14 melanoma = tested on: M14 melanoma
MALME-3M melanoma = tested on: MALME-3M melanoma
MCF7 breast = tested on: MCF7 breast
MDA-MB-231 breast = tested on: MDA-MB-231 breast
MDA-MB-435 = tested on: MDA-MB-435
MOLT-4 leukemia = tested on: MOLT-4 leukemia
NCI-H226 lung = tested on: NCI-H226 lung
NCI-H23 lung = tested on: NCI-H23 lung
NCI-H460 lung = tested on: NCI-H460 lung
NCI-H522 lung = tested on: NCI-H522 lung
NCI/ADR-RES ovarian = tested on: NCI/ADR-RES ovarian
OVCAR-3 ovarian = tested on: OVCAR-3 ovarian
OVCAR-4 ovarian = tested on: OVCAR-4 ovarian
OVCAR-5 ovarian = tested on: OVCAR-5 ovarian
OVCAR-8 ovarian = tested on: OVCAR-8 ovarian
PC-3 prostate = tested on: PC-3 prostate
RPMI-8226 leukemia = tested on: RPMI-8226 leukemia
RXF 393 renal = tested on: RXF 393 renal
SF-268 CNS = tested on: SF-268 CNS
SF-295 CNS = tested on: SF-295 CNS
SF-539 CNS = tested on: SF-539 CNS
SK-MEL-2 melanoma = tested on: SK-MEL-2 melanoma
SK-MEL-28 melanoma = tested on: SK-MEL-28 melanoma
SK-MEL-5 melanoma = tested on: SK-MEL-5 melanoma
SK-OV-3 ovarian = tested on: SK-OV-3 ovarian
SN12C renal = tested on: SN12C renal
SNB-19 CNS = tested on: SNB-19 CNS
SNB-75 CNS = tested on: SNB-75 CNS
SR leukemia = tested on: SR leukemia
SW-620 colon = tested on: SW-620 colon
T-47D breast = tested on: T-47D breast
TK-10 renal = tested on: TK-10 renal
U251 CNS = tested on: U251 CNS
UACC-257 melanoma = tested on: UACC-257 melanoma
UACC-62 melanoma = tested on: UACC-62 melanoma
UO-31 renal = tested on: UO-31 renal

CN(c1ccc(NC(=O)NCCN2CCOCC2)cc1)c1ccnc(Nc2ccc(CS(C)(=O)=O)cc2)n1
GI50 (786-0 renal): > 25 µM
TGI (786-0 renal): > 25 µM
GI50 (A498 renal): > 25 µM
TGI (A498 renal): > 25 µM
GI50 (A549 NSCLC): > 25 µM
TGI (A549 NSCLC): > 25 µM
GI50 (ACHN renal): > 25 µM
TGI (ACHN renal): > 25 µM
GI50 (BT-549 breast): > 25 µM
TGI (BT-549 breast): > 25 µM
GI50 (CAKI-1 renal): > 25 µM
TGI (CAKI-1 renal): > 25 µM
GI50 (CCRF-CEM leukemia): > 25 µM
TGI (CCRF-CEM leukemia): > 25 µM
GI50 (COLO 205 colon): > 16.8 µM
TGI (COLO 205 colon): > 25 µM
GI50 (DU-145 prostate): > 25 µM
TGI (DU-145 prostate): > 25 µM
GI50 (EKVX NSCLC): > 25 µM
TGI (EKVX NSCLC): > 25 µM
GI50 (HCC-2998 colon): > 25 µM
TGI (HCC-2998 colon): > 25 µM
GI50 (HCT-116 colon): > 25 µM
TGI (HCT-116 colon): > 25 µM
GI50 (HCT-15 colon): > 25 µM
TGI (HCT-15 colon): > 25 µM
GI50 (HL-60(TB) leukemia): > 25 µM
TGI (HL-60(TB) leukemia): > 25 µM
GI50 (HOP-62 NSCLC): > 25 µM
TGI (HOP-62 NSCLC): > 25 µM
GI50 (HOP-92 NSCLC): 19.2 µM
TGI (HOP-92 NSCLC): > 25 µM
GI50 (HS 578T breast): > 25 µM
TGI (HS 578T breast): > 25 µM
GI50 (HT29 colon): > 25 µM
TGI (HT29 colon): > 25 µM
GI50 (IGROV1 ovarian): > 25 µM
TGI (IGROV1 ovarian): > 25 µM
GI50 (K-562 leukemia): > 25 µM
TGI (K-562 leukemia): > 25 µM
GI50 (KM12 colon): 12.2 µM
TGI (KM12 colon): > 25 µM
GI50 (LOX IMVI melanoma): > 25 µM
TGI (LOX IMVI melanoma): > 25 µM
GI50 (M14 melanoma): > 25 µM
TGI (M14 melanoma): > 25 µM
GI50 (MALME-3M melanoma): > 25 µM
TGI (MALME-3M melanoma): > 25 µM
GI50 (MCF7 breast): > 21.7 µM
TGI (MCF7 breast): > 25 µM
GI50 (MDA-MB-231 breast): > 25 µM
TGI (MDA-MB-231 breast): > 25 µM
GI50 (MDA-MB-435): > 25 µM
TGI (MDA-MB-435): > 25 µM
GI50 (MOLT-4 leukemia): > 25 µM
TGI (MOLT-4 leukemia): > 25 µM
GI50 (NCI-H226 lung): 9.18 µM
TGI (NCI-H226 lung): > 25 µM
GI50 (NCI-H23 lung): > 25 µM
TGI (NCI-H23 lung): > 25 µM
GI50 (NCI-H460 lung): > 25 µM
TGI (NCI-H460 lung): > 25 µM
GI50 (NCI-H522 lung): > 25 µM
TGI (NCI-H522 lung): > 25 µM
GI50 (NCI/ADR-RES ovarian): > 25 µM
TGI (NCI/ADR-RES ovarian): > 25 µM
GI50 (OVCAR-3 ovarian): > 25 µM
TGI (OVCAR-3 ovarian): > 25 µM
GI50 (OVCAR-4 ovarian): 19.8 µM
TGI (OVCAR-4 ovarian): > 25 µM
GI50 (OVCAR-5 ovarian): > 25 µM
TGI (OVCAR-5 ovarian): > 25 µM
GI50 (OVCAR-8 ovarian): > 25 µM
TGI (OVCAR-8 ovarian): > 25 µM
GI50 (PC-3 prostate): > 25 µM
TGI (PC-3 prostate): > 25 µM
GI50 (RPMI-8226 leukemia): > 25 µM
TGI (RPMI-8226 leukemia): > 25 µM
GI50 (RXF 393 renal): > 25 µM
TGI (RXF 393 renal): > 25 µM
GI50 (SF-268 CNS): > 25 µM
TGI (SF-268 CNS): > 25 µM
GI50 (SF-295 CNS): > 25 µM
TGI (SF-295 CNS): > 25 µM
GI50 (SF-539 CNS): > 21.4 µM
TGI (SF-539 CNS): > 25 µM
GI50 (SK-MEL-2 melanoma): > 25 µM
TGI (SK-MEL-2 melanoma): > 25 µM
GI50 (SK-MEL-28 melanoma): > 25 µM
TGI (SK-MEL-28 melanoma): > 25 µM
GI50 (SK-MEL-5 melanoma): > 25 µM
TGI (SK-MEL-5 melanoma): > 25 µM
GI50 (SK-OV-3 ovarian): > 25 µM
TGI (SK-OV-3 ovarian): > 25 µM
GI50 (SN12C renal): > 25 µM
TGI (SN12C renal): > 25 µM
GI50 (SNB-19 CNS): > 25 µM
TGI (SNB-19 CNS): > 25 µM
GI50 (SNB-75 CNS): > 25 µM
TGI (SNB-75 CNS): > 25 µM
GI50 (SR leukemia): > 25 µM
TGI (SR leukemia): > 25 µM
GI50 (SW-620 colon): > 25 µM
TGI (SW-620 colon): > 25 µM
GI50 (T-47D breast): > 23.6 µM
TGI (T-47D breast): > 25 µM
GI50 (TK-10 renal): > 25 µM
TGI (TK-10 renal): > 25 µM
GI50 (U251 CNS): > 25 µM
TGI (U251 CNS): > 25 µM
GI50 (UACC-257 melanoma): > 25 µM
TGI (UACC-257 melanoma): > 25 µM
GI50 (UACC-62 melanoma): > 25 µM
TGI (UACC-62 melanoma): > 25 µM
GI50 (UO-31 renal): > 25 µM
TGI (UO-31 renal): > 25 µM
